Data on 1 molecule can be found in article PMC6385671, “An integrated-molecular-beacon based multiple exponential strand displacement amplification strategy for ultrasensitive detection of DNA methyltransferase activity” (Chemical Science, 2018).

SMILES strings stand for the structures.

The target in this experiment is Dam MTase (Escherichia coli, UniProt P0AEE8). Kind of experiment: coupled fluorescence assay (molecular beacon methylation, DpnI cleavage, strand displacement amplification) with commercial Dam MTase. It is filed as biochemical.
Chain of Dam MTase (P0AEE8 whole entry): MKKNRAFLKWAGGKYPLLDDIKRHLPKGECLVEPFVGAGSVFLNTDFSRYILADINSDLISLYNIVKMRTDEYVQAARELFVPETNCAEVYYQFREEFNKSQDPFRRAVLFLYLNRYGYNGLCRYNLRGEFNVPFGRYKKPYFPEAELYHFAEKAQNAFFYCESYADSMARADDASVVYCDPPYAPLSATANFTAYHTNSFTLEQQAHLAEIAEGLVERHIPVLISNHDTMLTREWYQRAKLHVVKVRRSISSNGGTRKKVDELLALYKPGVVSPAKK

As a reminder, the IC50 is the midpoint of a concentration-inhibition curve. Low values mean inhibition by little substance, high ones a need for much substance. The molecule `O=c1[nH]cc(F)c(=O)[nH]1` [5-fluorouracil] returned a 50% inhibitory concentration (IC50) of 0.71 µM. This lies in the sub-micromolar range.
